{
  "source": "patent US8192925B2",
  "about": "“Polypeptides having antimicrobial activity and polynucleotides encoding same” (Novozymes Adenium Biotech A/S, priority 2004, dated 2012)",
  "experiment_in_all_cases": "Microdilution MIC assay (NCCLS/CLSI guidelines)",
  "format_in_all_cases": "cell-based",
  "conditions_in_all_cases": "tested 0.06-32 μg/ml",
  "key": {"[1]": {"system": "Staphylococcus aureus, ATCC 29213", "experimental": "(§1) Purified Eurocin was evaluated for antimicrobial activity in a microdillution assay. The\n(§2) Minimal Inhibitory Concentration (MIC) was determined following the NCCLS/CLSI guidelines from CLSI (Clinical and Laboratory Standards Institute).\n(§3) Eurocin was tested at the following concentrations: 32; 16; 8; 4; 2; 1; 0.50; 0.25; 0.13; and 0.06 μg/ml."}, "[2]": {"system": "Enterococcus faecium, ATCC 49624", "experimental": "as §1, §2, §3"}, "[3]": {"system": "Staphylococcus carnosus, ATCC 51365", "experimental": "as §1, §2, §3"}, "[4]": {"system": "Streptococcus pyogenes, ATCC 12344", "experimental": "as §1, §2, §3"}, "[5]": {"system": "Staphylococcus epidermidis, ATCC 12228", "experimental": "as §1, §2, §3"}, "[6]": {"system": "Streptococcus pneumoniae, ATCC 49619", "experimental": "as §1, §2, §3"}, "[7]": {"system": "Micrococcus luteus, ATCC 9341", "experimental": "as §1, §2, §3"}},
  "data": [
    {"substance": "Eurocin: antimicrobial polypeptide shown as amino acids 1 to 42 of SEQ ID NO:2, from Eurotium amstelodami, expressed in Aspergillus oryzae (MHFTKVSTILFTIFAAGIMAAPTEGVREEAAPGQEVYPDEPP; listed as Eurotium amstelodami)", "values": [
      {"measurement": "MIC", "setting": "[1]", "value": 16, "unit": "µg/mL"},
      {"measurement": "MIC", "setting": "[2]", "value": 16, "unit": "µg/mL"},
      {"measurement": "MIC", "setting": "[3]", "value": 8, "unit": "µg/mL"},
      {"measurement": "MIC", "setting": "[4]", "value": 0.13, "unit": "µg/mL"},
      {"measurement": "MIC", "setting": "[5]", "value": 16, "unit": "µg/mL"},
      {"measurement": "MIC", "setting": "[6]", "value": 0.25, "unit": "µg/mL"},
      {"measurement": "MIC", "setting": "[7]", "value": 0.5, "unit": "µg/mL"}
    ]}
  ]
}
